Patent publication US4897503A, “1,1,2-triaryl-1-alkene derivatives” (Taiho Pharmaceutical, priority 1986, dated 1990)
Where two headings read alike, the source gives them in different places.

How the values were obtained:
[1] = system: experimental hormone-dependent tumor cells; details: vs tamoxifen; cited from earlier work
[2] = vs tamoxifen; cited from earlier work
[3] = system: mammary cancer induced by 7,12-dimethylbenzanthracene (DMBA); test: Effect on DMBA-induced mammary cancer: inhibition of appearance of new tumor; assay type: in vivo, rat (Sprague-Dawley, female); details: for Inhibition of appearance of new tumor: 6 times a week for 3 weeks, 15 animals
Description: (§1) The experiments were performed in 7-week-old female Sprague-Dawley rats bearing mammary cancer which had been induced by oral administration of 7,12-dimethylbenzanthracene (DMBA) according to the method described in European Journal of Cancer and Clinical Oncology 11, 571 (1975) and Cancer Research 26, 2169 (1966). The inhibitory effect of each test compound on this cancer was investigated.
(§2) Each test compound was suspended in an aqueous solution containing 0.5% of carboxymethylcellulose and 0.5% of Tween 80 and the suspension was orally administered by gastric gavage 6 times a week for 3 consecutive weeks. Once a week and on the 21st day, the number of induced tumors was counted and the surface area of tumors was measured. The percent increase in surface area relative to the surface area on the first day of administration was calculated and the result was compared with the result in the control group. The inhibitory effects on the appearance of new tumor are shown in Table 7 and the inhibitory effects on the enlargement of the tumor are shown in Table 8. The inhibition of appearance of new tumor (%) was calculated according to the formula: 100-(N/M)×100 where N is the number of newly appeared tumors in test group and M is the number of newly appeared tumors in control group.

[4] = Acute toxicity test (oral and intraperitoneal, Up-and-Down method); set-up: species or system mouse (ddY strain); details: mouse, in vivo, 6-week old male ddY mice, 3 weeks observation
Description: The acute oral and intraperitoneal toxicity of these compounds were investigated in 6-week old male ddY strain mice. In the oral toxicity study, each test compound was suspended or dissolved in an aqueous solution containing 0.5% of carboxymethylcellulose and 0.5% of Tween 80 and was administered at a dose of 4 ml/100 g. In the intraperitoneal toxicity study, each test compound was suspended or dissolved in physiological saline containing 0.5% of Tween 80 and was administered at a dose of 2 ml/100 g.

[5] = system: uterus; test: Anti-uterotrophic effect (inhibition of uterine weight gain in immature rats); assay type: in vivo, rat (Sprague-Dawley, female; details: Rattus norvegicus, 504 h, read-out: ED50 (50% inhibition of uterine weight gain)
From the text: The antiuterotophic activity of each test compound was studied using immature 4-week-old female Sprague-Dawley rats, according to the method described in Methods in Hormone Research, vol. 2, Academic Press p. 707 (1962).
Each test compound was suspended in a vehicle solution (i.e., an aqueous solution containing 0.5% of carboxymethylcellulose and 0.5% of Tween 80) and the suspension was orally administered using a stomach tube 6 times a week for 3 consecutive weeks at various doses. The animals were autopsied one day after the final administration and the uterus was weighed.
The percent inhibition of uterine weight gain was calculated by the formula
Percent inhibition=(A-C)×100/(A-B)
where A is the mean value of the uterine weight of the control which received the vehicle solution, B is that of the ovariectomized control (i.e., animals ovariectomized at the age of four weeks and thereafter treated with the vehicle solution for 3 weeks) and C is that of the animals which received each dose of each test compound. Then, the dose of each test compound causing a 50% inhibition (ED50) was calculated from the dose-response curve.

[6] = system: mammary cancer induced by 7,12-dimethylbenzanthracene (DMBA); test: Effect on DMBA-induced mammary cancer: inhibition of tumor growth; assay type: in vivo, rat (Sprague-Dawley, female); details: 6 times a week for 3 weeks, 15 animals
Description: as §1, §2

[7] = ip, intraperitoneal, read-out: LD50 intraperitoneal

SMILES | antitumor activity in vitro, in words [1] | effectiveness in vivo, in words [2] | Inhibition of appearance of new tumor ([3]; 0.1 mg/kg/day p.o.) [%] | Inhibition of appearance of new tumor ([3]; 0.3 mg/kg/day p.o.) [%] | LD50 at 504 h [4, 7] [mg/kg] | LD50 at 504 h ([4]; oral, read-out: LD50 oral) [mg/kg] | ED50 ([5]; po) [mg/kg] | Inhibition of tumor growth (on day 21) ([6]; 0.1 mg/kg/day p.o.) [%] | Inhibition of tumor growth (on day 21) ([6]; 0.3 mg/kg/day p.o.) [%] | inhibition of appearance of new mammary cancer, in words ([3]; 0.1 mg/kg/day) | ED50 ([5]; oral, 6 times a week for 3 weeks, immature female SD rats, 7 animals) [mg/kg]
CC/C(=C(\c1ccc(O)cc1)c1ccc(OCCN(C)C)cc1)c1ccccc1 [4-hydroxytamoxifen] | more potent antitumor activity than tamoxifen | inferior in effectiveness to tamoxifen | – | – | – | – | – | – | – | – | –
CC/C(=C(/c1ccc(OCCN(C)C)cc1)c1ccc(OP(=O)(O)O)cc1)c1ccccc1 [Compound 1, (E)-4-[1-[4-[2-(Dimethylamino)ethoxy]phenyl]-2-phenyl-1-butenyl]-phenyl phosphate] | – | – | 56.7 | 54.7 | 223 | > 2000 | 0.076 | 26.5 | 42.3 | – | –
CCC(=C(c1ccc(OCCN(C)C)cc1)c1ccc(OP(=O)(O)O)cc1)c1ccc(C(C)C)cc1 [Compound 5] | – | – | 46.7 | 48.5 | 354 | > 2000 | 0.097 | 26.5 | 50.2 | – | –
CCOc1ccc(/C(CC)=C(/c2ccc(OCCN(C)C)cc2)c2ccc(OP(=O)(O)O)cc2)cc1 [Compound 7] | – | – | – | – | 223 | > 2000 | 0.026 | – | – | – | –
CC/C(=C(\c1ccccc1)c1ccc(OCCN(C)C)cc1)c1ccccc1 [Tamoxifen, reference compound] | – | – | -7.7 | 21.0 | 177 | > 2000 | – | 4.7 | 39.0 | ineffective | 0.203
